Measured values from ChEMBL document CHEMBL5715954, “Silencing c-Myc translation as a therapeutic strategy through targeting PI3Kδ and CK1ε in hematological malignancies” (Blood, 2017).

Experiments:
Set-up in all cases: scale not given: the % may be the effect or the level left
[1] = biological target: Serine/threonine-protein kinase B-raf (Homo sapiens) (UniProt P15056); assay: Inhibition of human BRAF assessed as enzyme activity at 1 uM using MEK1 (K97R) as substrate preincubated for 20 mins followed by [gamma-33P]-ATP addition and measured after 120 mins by radiometric Hot-SpotSM Kinase assay relative to control
[2] = biological target: Serine/threonine-protein kinase Chk2 (Homo sapiens) (UniProt O96017); assay: Inhibition of human CHK2 assessed as enzyme activity at 1 uM using KKKVSRSGLYRSPSMPENLNRPR as substrate preincubated for 20 mins followed by [gamma-33P]-ATP addition and measured after 120 mins by radiometric Hot-SpotSM Kinase assay relative to control
[3] = biological target: Ephrin type-A receptor 5 (Homo sapiens) (UniProt P54756); assay: Inhibition of human EPHA5 assessed as enzyme activity at 1 uM using poly[Glu:Tyr] (4:1) as substrate preincubated for 20 mins followed by [gamma-33P]-ATP addition and measured after 120 mins by radiometric Hot-SpotSM Kinase assay relative to control
[4] = biological target: T1, Mitogen-activated protein kinase kinase kinase 3 (Homo sapiens) (UniProt Q99759); assay: Inhibition of human MEKK3 assessed as enzyme activity at 1 uM using myelin basic protein as substrate preincubated for 20 mins followed by [gamma-33P]-ATP addition and measured after 120 mins by radiometric Hot-SpotSM Kinase assay relative to control
T1 sequence (whole entry): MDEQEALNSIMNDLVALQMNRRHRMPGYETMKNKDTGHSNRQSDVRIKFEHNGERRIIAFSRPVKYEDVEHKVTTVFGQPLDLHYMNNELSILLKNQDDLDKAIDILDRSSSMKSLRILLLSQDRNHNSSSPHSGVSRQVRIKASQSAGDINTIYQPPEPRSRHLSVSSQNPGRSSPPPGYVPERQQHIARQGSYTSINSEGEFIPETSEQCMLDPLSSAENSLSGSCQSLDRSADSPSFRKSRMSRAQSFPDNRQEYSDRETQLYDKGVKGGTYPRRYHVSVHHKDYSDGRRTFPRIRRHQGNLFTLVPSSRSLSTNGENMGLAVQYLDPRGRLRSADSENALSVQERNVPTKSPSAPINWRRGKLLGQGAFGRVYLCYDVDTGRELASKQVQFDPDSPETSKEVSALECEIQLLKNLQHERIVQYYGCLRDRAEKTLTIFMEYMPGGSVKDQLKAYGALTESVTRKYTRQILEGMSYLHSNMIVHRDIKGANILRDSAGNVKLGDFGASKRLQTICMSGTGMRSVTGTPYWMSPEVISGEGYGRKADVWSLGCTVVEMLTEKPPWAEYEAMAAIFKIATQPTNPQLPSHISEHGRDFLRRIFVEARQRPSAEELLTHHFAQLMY

[5] = biological target: T2, Dual specificity tyrosine-phosphorylation-regulated kinase 3 (Homo sapiens) (UniProt O43781); assay: Inhibition of human DYRK3 assessed as enzyme activity at 1 uM using RRRFRPASPLRGPPK as substrate preincubated for 20 mins followed by [gamma-33P]-ATP addition and measured after 120 mins by radiometric Hot-SpotSM Kinase assay relative to control
T2 sequence (whole entry): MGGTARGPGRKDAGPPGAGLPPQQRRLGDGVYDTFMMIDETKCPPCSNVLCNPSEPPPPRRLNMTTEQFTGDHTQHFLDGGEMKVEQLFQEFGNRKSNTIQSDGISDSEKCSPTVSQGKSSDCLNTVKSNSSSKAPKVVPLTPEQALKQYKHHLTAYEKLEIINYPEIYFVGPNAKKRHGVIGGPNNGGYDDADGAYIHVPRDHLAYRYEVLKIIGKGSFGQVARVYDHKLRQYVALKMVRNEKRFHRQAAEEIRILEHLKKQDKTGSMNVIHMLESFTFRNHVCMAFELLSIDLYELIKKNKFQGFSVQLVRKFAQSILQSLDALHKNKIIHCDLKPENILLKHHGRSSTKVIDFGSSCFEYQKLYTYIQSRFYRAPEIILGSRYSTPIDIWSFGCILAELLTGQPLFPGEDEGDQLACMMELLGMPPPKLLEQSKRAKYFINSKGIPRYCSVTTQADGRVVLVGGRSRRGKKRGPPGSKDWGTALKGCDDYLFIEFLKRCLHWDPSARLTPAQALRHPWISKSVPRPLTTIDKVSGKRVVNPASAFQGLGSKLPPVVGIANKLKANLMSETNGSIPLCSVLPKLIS

[6] = biological target: Mitogen-activated protein kinase 3 (Homo sapiens) (UniProt P27361); assay: Inhibition of human ERK1 assessed as enzyme activity at 1 uM using myelin basic protein as substrate preincubated for 20 mins followed by [gamma-33P]-ATP addition and measured after 120 mins by radiometric Hot-SpotSM Kinase assay relative to control
[7] = biological target: T3, Homeodomain-interacting protein kinase 4 (Homo sapiens) (UniProt Q8NE63); assay: Inhibition of human HIPK4 assessed as enzyme activity at 1 uM using myelin basic protein as substrate preincubated for 20 mins followed by [gamma-33P]-ATP addition and measured after 120 mins by radiometric Hot-SpotSM Kinase assay relative to control
T3 sequence (whole entry): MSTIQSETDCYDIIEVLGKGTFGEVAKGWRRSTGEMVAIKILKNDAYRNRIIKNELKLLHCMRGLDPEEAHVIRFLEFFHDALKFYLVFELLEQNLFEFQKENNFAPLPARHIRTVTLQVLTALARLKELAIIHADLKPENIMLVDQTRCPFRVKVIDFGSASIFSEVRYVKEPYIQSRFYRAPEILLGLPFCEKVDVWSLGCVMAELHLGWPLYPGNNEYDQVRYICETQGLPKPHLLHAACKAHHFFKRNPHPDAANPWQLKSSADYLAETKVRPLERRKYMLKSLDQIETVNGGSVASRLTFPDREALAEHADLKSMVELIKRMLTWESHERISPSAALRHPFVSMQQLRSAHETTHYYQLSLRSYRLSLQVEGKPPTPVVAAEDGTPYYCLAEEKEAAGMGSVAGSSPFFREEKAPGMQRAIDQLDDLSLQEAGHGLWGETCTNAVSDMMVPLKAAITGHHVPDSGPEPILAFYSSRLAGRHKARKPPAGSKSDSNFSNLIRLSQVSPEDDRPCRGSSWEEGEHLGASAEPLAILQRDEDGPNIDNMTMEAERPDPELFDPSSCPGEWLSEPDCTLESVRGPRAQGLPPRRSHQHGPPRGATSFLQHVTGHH

Sequence of Ephrin type-A receptor 5 (Homo sapiens) (P54756 whole entry): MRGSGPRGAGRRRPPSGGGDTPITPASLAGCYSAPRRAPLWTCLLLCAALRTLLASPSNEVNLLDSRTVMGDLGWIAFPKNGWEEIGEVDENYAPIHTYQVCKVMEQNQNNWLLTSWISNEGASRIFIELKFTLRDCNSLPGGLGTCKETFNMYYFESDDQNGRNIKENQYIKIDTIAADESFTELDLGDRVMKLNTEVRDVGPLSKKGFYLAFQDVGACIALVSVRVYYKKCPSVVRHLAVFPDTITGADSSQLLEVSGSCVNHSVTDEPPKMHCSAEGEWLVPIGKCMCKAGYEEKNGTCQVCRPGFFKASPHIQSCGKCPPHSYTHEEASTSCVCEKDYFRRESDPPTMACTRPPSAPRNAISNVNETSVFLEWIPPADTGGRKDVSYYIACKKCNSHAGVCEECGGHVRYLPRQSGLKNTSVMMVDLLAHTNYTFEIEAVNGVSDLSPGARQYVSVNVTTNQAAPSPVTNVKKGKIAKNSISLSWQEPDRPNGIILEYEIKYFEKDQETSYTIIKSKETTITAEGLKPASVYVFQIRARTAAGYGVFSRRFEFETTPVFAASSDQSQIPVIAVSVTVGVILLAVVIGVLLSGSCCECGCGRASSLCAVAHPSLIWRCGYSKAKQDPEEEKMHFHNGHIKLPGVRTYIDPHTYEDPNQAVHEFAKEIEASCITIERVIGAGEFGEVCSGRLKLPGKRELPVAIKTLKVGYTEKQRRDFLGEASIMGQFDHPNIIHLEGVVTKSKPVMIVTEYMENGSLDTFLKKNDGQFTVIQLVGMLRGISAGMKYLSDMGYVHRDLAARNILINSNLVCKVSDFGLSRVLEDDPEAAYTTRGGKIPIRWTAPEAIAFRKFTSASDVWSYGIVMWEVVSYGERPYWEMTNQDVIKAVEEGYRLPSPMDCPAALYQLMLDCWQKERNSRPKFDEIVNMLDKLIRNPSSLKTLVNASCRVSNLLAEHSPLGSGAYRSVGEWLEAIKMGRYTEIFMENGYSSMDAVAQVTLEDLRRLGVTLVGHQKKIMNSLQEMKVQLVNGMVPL
Sequence of Serine/threonine-protein kinase Chk2 (Homo sapiens) (O96017 whole entry): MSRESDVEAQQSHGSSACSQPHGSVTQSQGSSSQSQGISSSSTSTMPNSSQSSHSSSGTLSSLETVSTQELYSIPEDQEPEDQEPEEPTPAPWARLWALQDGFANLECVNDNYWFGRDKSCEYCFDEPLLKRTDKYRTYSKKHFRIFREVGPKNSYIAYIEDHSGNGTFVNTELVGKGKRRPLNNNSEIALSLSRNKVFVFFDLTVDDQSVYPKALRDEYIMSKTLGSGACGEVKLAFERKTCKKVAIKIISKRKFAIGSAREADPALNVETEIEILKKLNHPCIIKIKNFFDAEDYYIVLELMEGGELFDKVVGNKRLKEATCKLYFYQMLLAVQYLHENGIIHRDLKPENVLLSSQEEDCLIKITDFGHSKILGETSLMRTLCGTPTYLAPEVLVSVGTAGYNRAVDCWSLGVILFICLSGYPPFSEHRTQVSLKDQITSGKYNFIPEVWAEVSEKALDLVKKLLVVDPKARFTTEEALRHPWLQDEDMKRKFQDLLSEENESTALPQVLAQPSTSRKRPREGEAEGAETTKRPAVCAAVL
Sequence of Mitogen-activated protein kinase 3 (Homo sapiens) (P27361 whole entry): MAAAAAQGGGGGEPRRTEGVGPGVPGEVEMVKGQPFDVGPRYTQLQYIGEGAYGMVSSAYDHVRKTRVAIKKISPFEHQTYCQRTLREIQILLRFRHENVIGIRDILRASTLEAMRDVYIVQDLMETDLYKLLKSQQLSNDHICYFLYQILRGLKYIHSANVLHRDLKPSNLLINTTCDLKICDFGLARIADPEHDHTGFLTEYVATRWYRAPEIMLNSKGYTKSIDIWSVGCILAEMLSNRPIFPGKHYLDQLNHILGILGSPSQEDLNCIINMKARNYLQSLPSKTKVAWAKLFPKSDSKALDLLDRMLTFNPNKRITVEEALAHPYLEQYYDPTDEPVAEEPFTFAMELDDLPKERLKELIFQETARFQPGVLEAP
Sequence of Serine/threonine-protein kinase B-raf (Homo sapiens) (P15056 whole entry): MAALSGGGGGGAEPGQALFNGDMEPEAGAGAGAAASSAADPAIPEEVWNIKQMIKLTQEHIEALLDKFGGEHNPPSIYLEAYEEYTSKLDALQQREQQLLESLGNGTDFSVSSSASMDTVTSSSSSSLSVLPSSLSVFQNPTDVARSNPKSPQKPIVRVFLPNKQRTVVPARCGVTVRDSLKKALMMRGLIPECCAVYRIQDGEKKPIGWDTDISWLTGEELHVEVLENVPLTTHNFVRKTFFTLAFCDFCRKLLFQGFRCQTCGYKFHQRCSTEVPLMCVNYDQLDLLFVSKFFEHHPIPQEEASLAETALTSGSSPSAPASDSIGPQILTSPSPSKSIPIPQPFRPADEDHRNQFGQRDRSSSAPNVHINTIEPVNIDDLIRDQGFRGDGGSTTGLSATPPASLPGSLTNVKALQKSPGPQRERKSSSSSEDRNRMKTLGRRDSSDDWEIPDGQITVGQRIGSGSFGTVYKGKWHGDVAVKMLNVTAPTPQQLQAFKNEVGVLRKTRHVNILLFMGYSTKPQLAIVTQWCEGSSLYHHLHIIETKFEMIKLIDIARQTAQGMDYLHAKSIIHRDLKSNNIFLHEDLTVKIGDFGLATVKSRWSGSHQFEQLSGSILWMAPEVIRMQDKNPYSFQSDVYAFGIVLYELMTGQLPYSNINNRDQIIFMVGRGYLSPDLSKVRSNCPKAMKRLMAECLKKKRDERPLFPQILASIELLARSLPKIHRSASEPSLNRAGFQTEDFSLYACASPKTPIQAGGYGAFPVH

SMILES | Activity [1] [%] | Activity [2] [%] | Activity [3] [%] | Activity [4] [%] | Activity [5] [%] | Activity [6] [%] | Activity [7] [%]
CC[C@H](Nc1ncnc2[nH]cnc12)c1nc2cccc(F)c2c(=O)n1-c1ccccc1 | 87.6 | 93.7 | 105 | 102 | 96.9 | 96 | 92.9
CC(C)Oc1ccc(-c2nn([C@@H](C)c3oc4ccc(F)cc4c(=O)c3-c3cccc(F)c3)c3ncnc(N)c23)cc1F [UMBRALISIB] | 92.2 | 93.2 | 103 | 102 | 96.9 | 95.8 | 113
C[C@H](Nc1ncnc2nc[nH]c12)c1cc2cccc(Cl)c2c(=O)n1-c1ccccc1 | 85.9 | 91.3 | 104 | 91.8 | 97.8 | 95.9 | 98.9
